Data on two compounds can be found in US10919889B2, “Chiral heterocyclic compound with hedgehog pathway antagonist activity, method and use thereof” (SUZHOU KINTOR PHARMACEUTICALS, INC., priority 2016, dated 2021).

A short description of data set [1]: Rat pharmacokinetics experiments. Format: in vivo, Sprague-Dawley rats. As to conditions: for Vd: read-out: Apparent volume of distribution Vd, ss; for AUC(0-t): read-out: Area under the curve AUC0-24 h; for clearance: read-out: Clearance CL; for bioavailability / concentration at 8 h: po; for concentration at 8 h: oral dose 10 mg/kg. The method, then:
Male Spraguee-Dawley rats (body weight: 220 g˜250 g) were purchased from Slac Laboratory Animals (Shanghai). […] Blood samples were taken through the posterior orbital vein and the blood samples were placed in a tube containing EDTA (as an anticoagulant) and stored in a −80° C. environment after centrifugation with a refrigerated centrifuge. Blood sample (at an amount of folds of 25 μL) was taken and cold acetonitrile containing the internal standard (100 μL) was added. Sample was centrifuged for 10 minutes to precipitate the plasma protein. Finally, supernatant (10 μL) was injected into the LC-MS/MS system for analysis.
LC-MS/MS analysis method: All samples were analyzed by LC-MS/MS system of API4000 QTRAP mass spectrometer equipped with LC-20AD and CBM-20A controllers, DGU-20A solvent degasser and SIL-20A autosampler (Japan Shimadzu, Colombia, Md., USA). A Bona Aeger Venusil XBP C18 column (50×2.1 mm; filler 5 micron particle size) was used for HPLC separation. The column temperature was maintained at 40° C. The flow rate was 0.3 mL/min and the total run time was 6 minutes.
For the quantification of MS/MS, the API4000 QTRAP mass spectrometer was operated in an ESI positive mode with multiple reaction monitoring (MRM). All compounds and internal standards were set to be monitored during a residence time of 100 milliseconds. The other MS/MS parameters were set as follows: atomization gas (GS1) at 30 psi, 551b turbine pressure, 4500V ion spray voltage, 500° C. ion source temperature. For the selected ion transitions, each analyte was tested at the optimal sensitivity of the cluster potential (DP) and the collision energy (CE). Finally, the data was collected and processed using AB SCIEX Analysist 1.5.2 data collection and integration software.
Test subjects, Sprague-Dawley rats (body weight from about 220 g to about 250 g), were purchased from Slac Laboratory Animals (Shanghai, China). All compounds tested at 1 mg/mL concentration, either intravenous injected at a tail vein at 1 mL/kg dosage for one group of test subjects or administered orally at a dose of 10 mL/kg in another group of test subjects. Then aliquots of blood samples were collected by retro-orbital venous plexus puncture at time intervals after the injection/administration. The blood samples were kept in tubes containing EDTA, centrifuged and stored at −80° C. before analysis. Blank plasma was collected by the same method before rats were treated with compounds. Plasma samples for analysis were obtained by removing about 25 μL from the saved blood sample; adding cold acetonitrile (about 100 μL) as internal standard; centrifuged for 10 minutes to precipitate plasma proteins; and collect about 10 μL of the upper clear solution for analysis done by an LC-MS/MS system.
All samples were analyzed by an API 4000 QTRAP® LC/MS/MS System equipped with Shimadzu LC-20AD pump, Shimadzu CBM-20A controller, SIL-20A autosampler and DGU-20A degasser (Shimadzu, Columbia, Md., USA). A Venusil XBP C18 HPLC Column (2.1×50 mm, 5 μm) (Bonna-Agela Technologies) was used for HPLC separation at isocratic temperature of 40° C. Flow rate was kept at 0.3 mL/min and the total run time was kept at 6 minutes.
Quantification by MS/MS is done using the above-described API 4000 QTRAP mass spectrometer equipped with multiple reaction monitoring (MRM) and positive electrospray ionization (ESI+) modes. All compounds and internal standard were detected at […] of about 100 milliseconds. Other parameters for MS/MS are shown below: Ion Source Gas 1 (GS1) at 30 psi, turbine pressure at 55 pounds, ion spray voltage at 4500 V, and ion source temperature at 500° C. MRM measurements of the analytes were performed using declustering potential (DP) and […] values optimized for each analyte. Finally, all of the operations, the acquisition and analysis of data were controlled by Analyst (version 1.5.2, AB Sciex, USA).

Another data set has as its target T1, CYP3A4 (Homo sapiens, UniProt P08684).
T1 construct: containing HLM (0.2 mg/mL), phosphate buffer (100 mM, pH 7.4); from tissue; host or cells: liver microsomes (HLM)
In words: CYP liver enzyme inhibition experiment, CYP-3A4. Format: in vitro ADME. As to conditions: human liver microsomes, pH 7.4, probe midazolam, test compound 10 μM, HLM, midazolam 1 μM, read-out: CYP-3A4 Inhibitory rate (%). The method, then:
The five major CYP isozymes and their respective probe substrates were: CYP-1A2 (phenacetin, 30 μM), CYP-2C9 (toluenesulfonylurea, 100 μM), CYP-2C19 40 μM), CYP-2D6 (dextromethorphan, 5 μM) and CYP-3A4 (midazolam, 1 μM). All probes were used close to or below their KMS concentrations. The mixture (200 μL) was incubated in a 37° C. constant temperature water bath, containing HLM (0.2 mg/mL), phosphate buffer (100 mM, pH 7.4), NADPH […], test compound (10 μM) and the respective CYP probe substrate. Before the reaction with NADPH, the mixture was pre-incubated for 10 minutes to undergo inhibitor-enzyme interaction. After a specific period of time (10 minutes for CYP-1A2, 2D6 and 3A4; 30 minutes for CYP-2C9 and 2C19), the reaction was quenched by addition to 100 μL solution of appropriate amount of cold acetonitrile. Reaction system was centrifuged and injected into the LC-MS/MS to quantify the concentration of specific metabolite formed from the substrate and the CYP enzyme. Each test compound was tested at least three times independently. […]
Before the start of the reaction with NADPH, the above mixture can be pre-incubated for about 10 minutes to allow inhibitor-enzyme interactions. […] The quenched mixture can be centrifuged, and aliquots of the mixture can then be analyzed by LC-MS/MS to quantify the concentrations of specific metabolic products for each CYP isozyme. […]
(In general: Liver microsomes are a subcellular fraction often used to study metabolism.)

The mark [2] stands for this setting: male, Sprague-Dawley, plasma, intravenous injection, 2 mg/kg.
The mark [3] stands for this setting: male, Sprague-Dawley, plasma, oral, 10 mg/kg.
[4] abbreviates: male, Sprague-Dawley, plasma, oral, 10 mg/kg, read-out: Maximum plasma concentration Cmax.
[5] abbreviates: male, Sprague-Dawley, plasma, oral, 10 mg/kg, read-out: Peak time Tmax.
Setting [6] is: male, Sprague-Dawley, plasma, 10 mg/kg, P.O. 10 mg/kg vs I.V. 2 mg/kg, read-out: F %.
[7] abbreviates: male, Sprague-Dawley, plasma, 10 mg/kg, oral 10 mg/kg vs intravenous 2 mg/kg, read-out: Bioavailability F %.
The mark [8] stands for this setting: male, Sprague-Dawley, plasma, 10 mg/kg, read-out: plasma concentration after 8 hours.
[9] abbreviates: male, Sprague-Dawley, plasma, 10 mg/kg, read-out: plasma concentration after 8 hours in terms of molecular weight conversion.
[10] abbreviates: male, Sprague-Dawley, plasma, 10 mg/kg, oral, read-out: bioavailability.

Like-named read-outs stand apart in the source and are kept apart here.

What is called clearance is the volume of plasma or blood freed of the substance per unit of time. As usually defined, the Tmax is the time from dosing to the highest level.

T1 sequence (P08684 whole entry): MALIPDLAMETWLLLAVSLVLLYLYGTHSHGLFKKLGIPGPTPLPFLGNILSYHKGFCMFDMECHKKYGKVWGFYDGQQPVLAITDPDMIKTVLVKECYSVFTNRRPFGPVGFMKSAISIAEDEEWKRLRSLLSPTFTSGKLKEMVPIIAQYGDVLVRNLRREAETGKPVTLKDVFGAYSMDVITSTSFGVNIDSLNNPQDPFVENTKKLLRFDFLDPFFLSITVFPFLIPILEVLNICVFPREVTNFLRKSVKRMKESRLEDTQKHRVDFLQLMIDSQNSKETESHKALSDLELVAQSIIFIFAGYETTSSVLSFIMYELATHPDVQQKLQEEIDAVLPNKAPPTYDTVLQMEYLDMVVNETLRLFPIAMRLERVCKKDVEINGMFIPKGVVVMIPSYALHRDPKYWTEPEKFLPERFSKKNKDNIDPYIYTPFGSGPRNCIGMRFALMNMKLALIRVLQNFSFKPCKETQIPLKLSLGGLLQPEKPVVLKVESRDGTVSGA

As for `Cc1cnc(-c2cc(N3CCc4nc(N5CCC(O)CC5)ncc4C3C)ncc2Cl)c(C)c1` (racemic) [B], the AUC0-24 h in data set [1] (I.V., 2 mg/kg) was 2905 ng·h/mL; in data set [1] (P.O., 10 mg/kg), 7685 ng·h/mL. The compound further gave a CL in data set [1] (I.V., 2 mg/kg) of 11.4 mL/min/kg. The Vd in data set [1] (setting [2]) was 3.1 L/kg. The AUC(0-t) turned out to be 2900 ng·h/mL in data set [1] (setting [2]) and 7680 ng·h/mL in data set [1] (setting [3]). Besides, the clearance in data set [1] (setting [2]) amounted to 11.4 mL/min/kg. Also, the Cmax in data set [1] (setting [4]) turned out to be 1690 ng/mL. Also, in data set [1] (setting [5]), the Tmax was 0.5 h. Moreover, the bioavailability in data set [1] (setting [6]), in data set [1] (setting [7]) and in data set [1] (setting [10]) was 53% throughout. The concentration at 8 h in data set [1] (setting [8]) was 83 ng/mL; in data set [1] (setting [9]), 178 nM. On CYP3A4, the inhibition at 10 min, 10 µM worked out at 21 ± 4%.

Take `Cc1cnc(-c2cc(N3CCc4nc(N5CCC(O)CC5)ncc4[C@H]3C)ncc2Cl)c(C)c1` [Compound B1, (R)-1-(6-(5′-chloro-3,5-dimethyl-[2,4′-bipyridin]-2′-yl)-5-methyl-5,6,7,8-tetrahydropyrido[4,3-d]pyrimidin-2-yl)piperidin-4-ol]: in data set [1], the “increase of drug exposure (AUC) over that of A-55” value was found to be 122%. Further, the AUC0-24 h in data set [1] (I.V., 2 mg/kg) was found to be 2233 ng·h/mL; in data set [1] (P.O., 10 mg/kg) it was 12324 ng·h/mL. This compound came in with a CL in data set [1] (I.V., 2 mg/kg) of 14.4 mL/min/kg. This compound gave a t1/2 in data set [1] (I.V., 2 mg/kg) of 1.7 h. In addition, the Cmax in data set [1] (P.O., 10 mg/kg) came out at 1520 ng/mL; in data set [1] (setting [4]), 1520 ng/mL. Further, the time of peak concentration (Tmax) in data set [1] (P.O., 10 mg/kg) was found to be 1 h; in data set [1] (setting [5]), 1 h. Further, in data set [1] (setting [2]), the Vd is 2.2 L/kg. The AUC(0-t) stood at 2230 ng·h/mL in data set [1] (setting [2]) and 12300 ng·h/mL in data set [1] (setting [3]). Also, in data set [1] (setting [2]), the clearance turned out to be 14.4 mL/min/kg. The half-life in data set [1] (male, Sprague-Dawley, plasma, intravenous injection, 2 mg/kg, read-out: Half-life t1/2 (converted)) is 102 min. In addition, the bioavailability in data set [1] (setting [6]) was 100%; in data set [1] (setting [7]), 100%; in data set [1] (setting [10]) it was approximately 100%. In addition, the concentration at 8 h in data set [1] (setting [8]) is 623 ng/mL; in data set [1] (setting [9]), 1340 nM. At CYP3A4, the inhibition at 10 min, 10 µM worked out at 20 ± 5.9%.
